Laboratory results taken from US8017828B2, “Utilization of rare sugars in plant or microorganism” (Shikoku Research Institute Incorporated, priority 2004, dated 2011).

Tests used:
[1] = system: Aspergillus niger, Cladosporium cladosporioides and Penicillium chrysogenum; test: Mycelial elongation of filamentous fungi on agar with rare sugar; format: cell-based; conditions: 0.05% (w/v) in agar medium, 25° C., 4 days
Procedure: By using as targets, Aspergillus niger, Cladosporium cladosporioides and Penicillium chrysogenum, which are typical filamentous fungi and generally seen in a living environment, an effect of a rare sugar on mycelial elongation was examined.
As the test fungal strains, NBRC 4066 strain, NBRC 4459 strain and NBRC 4626 strain were used.
Each test fungal strain was cultured on a potato dextrose agar medium at 25° C. for 7 days, and one in which the mycelium extended over the surface of the dish was pushed out along with the agar medium in such a manner that the agar medium was in a disc form with a diameter of 1.1 cm, which was placed at the center of a dish filled with an agar medium (1% Bacto agar) supplemented with any of a variety of rare sugars (allitol, D-altrose, L-mannose, L-galactose, D-tagatose, D-sorbose, D-psicose, D-allose, D-glucose and D-fructose) at 0.05% (w/v) and cultured at 25° C. for 4 days. After the cultivation, the length of the mycelium extending on the surface of the culture medium was measured. Two culture media were prepared for each test plot, and the mycelial length represents the average thereof.

[2] = system: Fusarium oxysporum, Glomerella cingulata, Verticillium dahliae and Botrytlis cinerea; test: Mycelial elongation of plant pathogenic bacteria on agar with rare sugar; format: cell-based; conditions: 0.05% (w/v) in agar medium, 23° C., 7 days
Procedure: By using as targets, Fusarium oxysporum, Glomerella cingulata, Verticillium dahliae and Botrytlis cinerea, which are typical plant pathogenic bacteria, an effect of a rare sugar on mycelial elongation was examined.
As the test bacterial strains, IFO 31213 strain, IFO 6425 strain, IFO 9765 strain and IFO 9760 strain were used.
After the cultivation, the length of the extending mycelium was measured.

chitinase gene = test: Northern blotting of chitinase gene expression in sprayed cut leaves of rough lemon; format: in vivo; conditions: 0.5 mM sprayed on cut leaves, 2 to 48 hours
Procedure: Cut leaves of rough lemon were treated by spraying each of 0.5 mM L-psicose, L- & D-tagatose and D-sorbose thereon and were let stand for 2, 4, 6, 12, 24 and 48 hours at 24° C. under the dark condition in a moist chamber. Then, from the treated leaves, total RNA was extracted and the expression of genes of lipoxygenase and chitinase was analyzed by Northern blotting. The assays and analyses were repeated at least 3 times in all the treated plots, and equivalent results were obtained.

[3] = system: Brassica rapa var. amplexicaulis (variety: “Haru Ichiban”); test: Foliar spraying of sugar on Brassica rapa var. amplexicaulis; format: in vivo; conditions: 0.5% solution sprayed
Excerpt: Brassica rapa var. amplexicaulis is a vegetable in the Brassica family, and flower buds are harvested and used. As the same species of vegetables, broccoli, cauliflower and the like are exemplified, which are important horticultural crops. As for such a vegetable, development of flower buds has a large effect on the crop yield. Therefore, during the house cultivation of Brassica rapa var. amplexicaulis (variety: “Haru Ichiban”), foliar spraying of a sugar solution at a concentration of 0.5% (w/v) was carried out and effects on the growth and the development of flower buds were examined. The seeds of Brassica rapa var. amplexicaulis were sown in a 128-cell tray on Oct. 23, 2003 and raised for about 20 days. Then, the raised seedlings were transplanted for permanent planting with a planting distance of 40 cm on two rows with an inter row space of 50 cm in separate beds filled with soil for cultivation “Hana to Yasai no Tsuchi (garden soil for flowers and vegetables)” (Kurokawa Shubyo En) on Nov. 12, 2003. The cultivation was carried out by a simple fertigation system, and irrigation was carried out for 1 hour on a daily basis with a 2,000-fold dilution of Hyponex through an irrigation tube. The cultivation was carried out in a vinyl house without heating with side windows open. From Dec. 18, 2003, water or a 0.5% (w/v) sugar solution was sprayed onto the whole plant on a three times weekly basis. As for the types of sugars, D-glucose, D-fructose and D-psicose were used and five plants were cultivated for each test plot. On Feb. 23, 2004, three plants of medium size were harvested and a survey was carried out. The survey items were plant length, stem diameter, number of lateral buds, terminal bud weight, total weight of lateral buds and the like.

[4] = system: Pythium ultimum IFO 32426 strain; test: Oospore formation of Pythium ultimum in sugar solution; format: cell-based; conditions: 0.05% (w/v) sugar solution, 23° C., 4 days
Procedure: With regard to Pythium ultimum that causes damping-off of spinach and the like, an effect of a rare sugar on oospore formation was examined.
First, as the Pythium ultimum, IFO 32426 strain was used, and static culture thereof was carried out with 200 ml of V8 medium at 23° C. for 1 week. The resulting mycelial mat was well washed with sterile water and divided into 16 equal parts with forceps. This mycerial body was disentangled uniformly to form a small piece and immersed in 20 ml of a sugar solution at a concentration of 0.05% (w/v) and let stand at 23° C. for 4 days. […] Further, the same experiment was carried out using Pythium zingiberum IFO 30817 strain.

Salsola komarovii = test: Seed germination, short-time and continuous treatment (Experiment 2); format: in vivo; conditions: immersed in 1% solution for 24 hours, in the end; DW 28%
Procedure: In order to clarify an effect of a short-time treatment, 50 seeds of Salsola komarovii, tomato (Home Momotaro) and sunny lettuce (Red Wave), and 20 seeds of morning glory (Tairin Zaki Kongo) were immersed in any of deionized water, 1% D-psicose, 1% D-allose and 1% L-galactose for 24 hours (25° C., dark), respectively, then, they were lightly washed with deionized water. Then, the seeds were sown in a dish with a diameter of 9 cm having a filter paper placed therein, and germinated under the same condition by poring 5 to 10 ml of deionized water therein. Further, for the comparison, a continuous treatment with 1% D-psicose was carried out in accordance with the same procedure.

[5] = system: Arabidopsis thaliana Lan dsberg erecta (LER); test: Germination of Arabidopsis thaliana with 8 ketoses; format: in vivo; conditions: 100 mM aqueous solution
Procedure: An effect of 8 types of ketoses on germination of Arabidopsis thaliana LER series which was an experimental plant was examined.
Two sheets of filter paper were placed in a dish with a diameter of 3.5 cm, and 30 seeds of Arabidopsis thaliana Lan dsberg erecta (LER) were sown per dish, and 0.5 mL of a treatment liquid was poured therein. Then, the dishes were placed in an environment control chamber under the condition of a constant temperature of 25° C. and 24-hour day length (fluorescent lamp, 70 μmol/m^2/s). After the sowing, a survey was carried out with regard to the number of seeds that germinated at 24-hour interval. As the treatment liquid, 100 mM, 10 mM and 1 mM aqueous solutions of any of D-fructose, D-psicose, D-tagatose, D-sorbose, L-fructose, L-psicose, L-tagatose and L-sorbose, and distilled water were used. The procedure was repeated three times for the respective treatment liquids.

[6] = system: cherry tomato plant “mini carol”; test: Hydroponic growth of cherry tomato with 0.05 or 0.5 mM sugar, 10 days; format: in vivo; conditions: 0.5 mM
Procedure: Subsequently, a cherry tomato plant “mini carol” was transplanted for permanent planting to a hydroponic apparatus, and a total of 7 treated plots in which a plot without addition (control plot) was added to 6 treated plots with the use of a nutrient solution supplemented with 0.05 mM or 0.5 mM D-psicose, D-fructose or mannitol were prepared. A survey was carried out with regard to the growth at 10 days after the permanent planting. […] The stem diameter was the smallest in the case of 0.5 mM D-psicose. The number of leaves was the smallest in the case of 0.5 mM D-psicose and 0.5 mM mannitol. The root length was the smallest in the case of 0.5 mM psicose.

[7] = system: Fusarium oxysporum (IFO 31213 strain); format: in vivo, tomato plant (variety: “House Momotaro”)
Procedure: By using a tomato plant and a strain of Fusarium oxysporum, which is a typical pathogenic bacterium of tomato, an effect of D-psicose during infection in a stage of raising seedlings thereof was examined.
To be more specific, seeds of a tomato plant (variety: “House Momotaro”) were subjected to an immersion treatment by immersing them in a 0.01% (w/v) D-psicose solution or a 0.007% (w/v) probenazole solution for 15 minutes while stirring slowly, followed by air-drying on sterile gauze, and then used as treated seeds. In the medium culture for raising seedlings (pete:pearlite:vermiculite=2:1:1), 0.01% (w/v) D-psicose or 0.007% (w/v) probenazole was mixed, and the soil was placed in black polypot plant containers with a diameter of 9 cm, and then, 4 seeds of the above treated seeds were sown in each pot. The seeds (20 seeds in total) were sown in 5 pots for each test plot. After sowing, the pots were placed in a growth chamber at 23° C. and 5,000 Lux (12-hour day length), and raising of seedlings was initiated. At 1 month and 2 months after the initiation of raising of seedlings, a suspension of mycelium of Fusarium oxysporum (IFO 31213 strain) was inoculated around the roots, whereby infection with Fusarium oxysporum was caused. After the inoculation of Fusarium oxysporum, the temperature was raised to 30° C., and cultivation was continued. At about 4 months after sowing, a survey was carried out with regard to the survival rate of plants, the conditions of browning of vascular bundles and roots, the stem diameter and the like.

With `O=C[C@@H](O)[C@H](O)[C@H](O)[C@H](O)CO` [D-altrose] the “effect on mycelial elongation” value [1] was “have an effect of inhibiting mycelial elongation” and the “inhibitory effect on mycelial elongation” value [2] was “the highest inhibitory effect”.
`O=C(CO)[C@@H](O)[C@@H](O)[C@H](O)CO` [D-tagatose] was tested, and the “induction of the expression of chitinase gene” value (chitinase gene) was “more strongly than D-psicose”.
For `O=C[C@@H](O)[C@H](O)[C@H](O)[C@@H](O)CO` [L-galactose], the Terminal bud weight ([3]; control (water) 3.0) was 9.6 g, the Stem diameter ([3]; control (water) 22.8) was 21.7 mm and the “Number of lateral buds” value ([3]; control (water) 32.3) was 48.3. For the same compound, the Plant length ([3]; control (water) 49.3) was 52.7 cm, the “Total weight of lateral buds” value ([3]; control (water) 235.3) was 250.6 g and the “effect on mycelial elongation” value [1] was “have an effect of inhibiting mycelial elongation”. The oospore formation [4] was “inhibited” and the germination rate (Salsola komarovii) was 34%.
In the case of `O=C(CO)[C@@H](O)[C@@H](O)[C@@H](O)CO` [L-psicose], the inhibition of germination [5] is reported as “not clearly observed”.
In the case of `OC[C@@H](O)[C@@H](O)[C@H](O)[C@H](O)CO` [mannitol, reference compound], the “number of leaves, rank among 7 treated plots” value [6] is reported as “the smallest”.
In the case of `C=CCOC1=NS(=O)(=O)c2ccccc21` [probenazole, reference compound], the “Vascular bundle browning ratio” value ([7]; seed immersion (0.01% D-psicose or 0.007% probenazole), no seed treatment 25%) is reported as 5% and the Stem diameter ([7]; seed immersion treatment) is reported as “increased”.
